Reference: patent US10519134B2, “Pyrazole compounds and methods of making and using same” (Lundbeck La Jolla Research Center, Inc., priority 2015, dated 2019)

Assays:
[1] = biological target: T1, MAGL (Mus musculus, UniProt O35678); test: In vitro competitive activity-based protein profiling (mouse), MAGL gel band; assay type: biochemical; conditions: for IC50: mouse; for inhibition at 1 µM: read-out: MAGL % inh. 1 μM
T1 construct: Proteomes (mouse brain membrane fraction or cell lysates); from tissue; host or cells: mouse brain membrane fraction (or cell lysates)
T1 sequence (O35678 1-303): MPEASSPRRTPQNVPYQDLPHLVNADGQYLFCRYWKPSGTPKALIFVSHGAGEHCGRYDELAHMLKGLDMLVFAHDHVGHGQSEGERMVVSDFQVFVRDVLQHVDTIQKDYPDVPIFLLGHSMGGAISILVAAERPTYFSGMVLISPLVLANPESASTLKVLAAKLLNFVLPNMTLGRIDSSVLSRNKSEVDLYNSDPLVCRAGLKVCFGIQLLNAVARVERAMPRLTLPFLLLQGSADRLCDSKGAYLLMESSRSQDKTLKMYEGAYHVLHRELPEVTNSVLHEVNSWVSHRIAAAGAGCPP
Procedure, shortened: (§1)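 Mouse brain membrane proteome or cell lysate (1.0 mg/mL protein) preincubated 30 min at 37 °C with varying inhibitor concentrations, then labelled 30 min at 37 °C with FP-Rh or HT-01 probe (50 μM stock). After SDS-PAGE, activity taken from fluorescent intensity of the MAGL and FAAH gel bands.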

[2] = biological target: T2, FAAH (Mus musculus, UniProt O08914); test: In vitro competitive activity-based protein profiling (mouse), FAAH gel band; assay type: biochemical; conditions: for IC50: mouse; for inhibition at 1 µM: read-out: FAAH % inh. 1 μM
T2 construct: Proteomes (mouse brain membrane fraction or cell lysates); from tissue; host or cells: mouse brain membrane fraction (or cell lysates)
T2 sequence (O08914 1-579): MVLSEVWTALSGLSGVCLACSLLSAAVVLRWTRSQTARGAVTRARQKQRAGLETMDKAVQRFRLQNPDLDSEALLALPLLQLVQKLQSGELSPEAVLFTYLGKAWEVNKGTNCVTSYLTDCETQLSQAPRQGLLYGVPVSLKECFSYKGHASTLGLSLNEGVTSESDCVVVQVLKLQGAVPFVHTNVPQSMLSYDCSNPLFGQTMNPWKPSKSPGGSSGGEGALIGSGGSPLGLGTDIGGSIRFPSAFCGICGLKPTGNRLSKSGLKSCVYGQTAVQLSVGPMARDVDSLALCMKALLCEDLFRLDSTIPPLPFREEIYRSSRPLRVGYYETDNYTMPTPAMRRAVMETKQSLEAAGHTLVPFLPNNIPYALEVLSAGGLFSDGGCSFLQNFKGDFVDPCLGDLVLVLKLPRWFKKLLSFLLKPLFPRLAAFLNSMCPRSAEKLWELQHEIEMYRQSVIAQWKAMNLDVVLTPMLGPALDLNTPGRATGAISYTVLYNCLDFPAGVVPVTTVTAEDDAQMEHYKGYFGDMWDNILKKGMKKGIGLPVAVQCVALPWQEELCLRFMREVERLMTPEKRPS
Procedure, shortened: as §1

Row | Structure (SMILES) | IC50 [1] | inhibition at 1 µM [1] | IC50 [2] | inhibition at 1 µM [2]
1 | CC(=O)Nc1ccn(C(=O)N2CCC3(CCCN3Cc3ccc4c(c3)COC4)CC2)n1 [Example 97, N-(1-(1-((1,3-dihydroisobenzofuran-5-yl)methyl)-1,8-diazaspiro[4.5]decane-8-carbonyl)-1H-pyrazol-3-yl)acetamide] | 100 to 1000 nM | ≥ 75% | 1000 to 10000 nM | 0 to 25%
2 | CS(=O)(=O)Nc1ccn(C(=O)N2CCN(Cc3ccc(Cl)c(-c4nnn[nH]4)c3)CC2)n1 [Example 214, N-(1-(4-(4-chloro-3-(1H-tetrazol-5-yl)benzyl)piperazine-1-carbonyl)-1H-pyrazol-3-yl) methanesulfonamide] | – | 0 to 25% | – | 0 to 25%
3 | Cn1ncc2cc(CN3CCN(C(=O)n4ccc(NS(C)(=O)=O)n4)CC3)ccc21 [Example 184, N-(1-(4-((1-methyl-1H-indazol-5-yl)methyl)piperazine-1-carbonyl)-1H-pyrazol-3-yl) methanesulfonamide] | – | 25 to 50% | – | 0 to 25%
4 | Cc1ccc(CN2CCN(C(=O)n3ccc(NS(C)(=O)=O)n3)CC2)c(N2CCCCC2)c1 [Example 138, N-(1-(4-(4-methyl-2-(piperidin-1-yl)benzyl)piperazine-1-carbonyl)-1H-pyrazol-3-yl) methanesulfonamide] | 100 to 1000 nM | ≥ 75% | 1000 to 10000 nM | 0 to 25%
5 | CC(=O)Nc1ccn(C(=O)N2CCC3(CCCN3Cc3ccc(Cl)cc3N3CCN(C(C)=O)CC3)CC2)n1 [Example 36, N-(1-(1-(2-(4-acetylpiperazin-1-yl)-4-chlorobenzyl)-1,8-diazaspiro[4.5]decane-8-carbonyl)-1H-pyrazol-3-yl)acetamide] | 100 to 1000 nM | ≥ 75% | 1000 to 10000 nM | 0 to 25%
6 | CC(=O)Nc1ccn(C(=O)N2CCN(Cc3ccc(C#N)cc3-c3nnn[nH]3)CC2)n1 [Example 115, N-(1-(4-(4-cyano-2-(1H-tetrazol-5-yl)benzyl)piperazine-1-carbonyl)-1H-pyrazol-3-yl)acetamide] | 100 to 1000 nM | ≥ 75% | 1000 to 10000 nM | 0 to 25%
7 | CS(=O)(=O)Nc1ccn(C(=O)N2CCN(Cc3ccc(Cl)c(-c4ncon4)c3)CC2)n1 [Example 261, N-(1-(4-(4-chloro-3-(1,2,4-oxadiazol-3-yl)benzyl)piperazine-1-carbonyl)-1H-pyrazol-3-yl) methanesulfonamide] | – | ≥ 75% | – | 0 to 25%
8 | CC(=O)Nc1ccn(C(=O)N2CCC3(CCCN3Cc3ccc(C(F)(F)F)cc3OC3CCS(=O)(=O)CC3)CC2)n1 [Example 87, N-(1-(1-(2-((1,1-dioxidotetrahydro-2H-thiopyran-4-yl)oxy)-4-(trifluoromethyl)benzyl)-1,8-diazaspiro[4.5]decane-8-carbonyl)-1H-pyrazol-3-yl)acetamide] | 100 to 1000 nM | ≥ 75% | 1000 to 10000 nM | 25 to 50%
9 | CS(=O)(=O)Nc1ccn(C(=O)N2CCC3(CCCN3Cc3cccc(N4CC5CCC(C4)O5)c3Cl)CC2)n1 [Example 145, N-(1-(1-(3-(8-oxa-3-azabicyclo[3.2.1]octan-3-yl)-2-chlorobenzyl)-1,8-diazaspiro[4.5]decane-8-carbonyl)-1H-pyrazol-3-yl) methanesulfonamide] | 100 to 1000 nM | ≥ 75% | 1000 to 10000 nM | 0 to 25%

Continued, values first:

Row | IC50 [1] | inhibition at 1 µM [1] | IC50 [2] | inhibition at 1 µM [2] | Structure (SMILES)
10 | – | ≥ 75% | – | 0 to 25% | CS(=O)(=O)Nc1ccn(C(=O)N2CCN(Cc3cc(Cl)cc(C(F)(F)F)c3)CC2)n1 [Example 176, N-(1-(4-(3-chloro-5-(trifluoromethyl)benzyl)piperazine-1-carbonyl)-1H-pyrazol-3-yl) methanesulfonamide]
11 | ≤ 100 nM | ≥ 75% | 1000 to 10000 nM | 0 to 25% | CS(=O)(=O)Nc1ccn(C(=O)N2CCN(Cc3ccc(Cl)cc3N3CC4CCC(C3)O4)CC2)n1 [Example 256, N-(1-(4-(2-(8-oxa-3-azabicyclo[3.2.1]octan-3-yl)-4-chlorobenzyl)piperazine-1-carbonyl)-1H-pyrazol-3-yl) methanesulfonamide]
12 | – | ≥ 75% | – | 0 to 25% | CC(=O)Nc1ccn(C(=O)N2CCC3(CCCN3Cc3ccc(C(F)(F)F)cc3OCC(=O)N3CCCC3)CC2)n1 [Example 89, N-(1-(1-(2-(2-oxo-2-(pyrrolidin-1-yl)ethoxy)-4-(trifluoromethyl)benzyl)-1,8-diazaspiro[4.5]decane-8-carbonyl)-1H-pyrazol-3-yl)acetamide]
13 | 100 to 1000 nM | ≥ 75% | 1000 to 10000 nM | 0 to 25% | CC(=O)N1CCN(c2cc(CN3CCN(C(=O)n4ccc(NS(C)(=O)=O)n4)CC3)ccc2Cl)CC1 [Example 284, N-(1-(4-(3-(4-acetylpiperazin-1-yl)-4-chlorobenzyl)piperazine-1-carbonyl)-1H-pyrazol-3-yl) methanesulfonamide]
14 | ≤ 100 nM | ≥ 75% | 1000 to 10000 nM | 0 to 25% | CC(=O)Nc1ccn(C(=O)N2CCC3(CCCN3Cc3ccc(N4CCCC4)c(Cl)c3)CC2)n1 [Example 100, N-(1-(1-(3-chloro-4-(pyrrolidin-1-yl)benzyl)-1,8-diazaspiro[4.5]decane-8-carbonyl)-1H-pyrazol-3-yl)acetamide]
15 | 100 to 1000 nM | ≥ 75% | 1000 to 10000 nM | 0 to 25% | CS(=O)(=O)Nc1ccn(C(=O)N2CCC3(CCCN3Cc3ccc(C(F)(F)F)cc3N3CCCCC3)CC2)n1 [Example 133, N-(1-(1-(2-(piperidin-1-yl)-4-(trifluoromethyl)benzyl)-1,8-diazaspiro[4.5]decane-8-carbonyl)-1H-pyrazol-3-yl)methanesulfonamide]
16 | ≤ 100 nM | ≥ 75% | 1000 to 10000 nM | 0 to 25% | CC(=O)Nc1ccn(C(=O)N2CCC3(CCCN3Cc3ccc(C(F)(F)F)cc3N3CCCCC3)CC2)n1 [Example 19, N-(1-(1-(2-(piperidin-1-yl)-4-(trifluoromethyl)benzyl)-1,8-diazaspiro[4.5]decane-8-carbonyl)-1H-pyrazol-3-yl)acetamide]
17 | ≤ 100 nM | ≥ 75% | 1000 to 10000 nM | 0 to 25% | CC(=O)Nc1ccn(C(=O)N2CCC3(CCCN3Cc3ccc(C)c(C(F)(F)F)c3)CC2)n1 [Example 23, N-(1-(1-(4-methyl-3-(trifluoromethyl)benzyl)-1,8-diazaspiro[4.5]decane-8-carbonyl)-1H-pyrazol-3-yl)acetamide]
18 | 100 to 1000 nM | ≥ 75% | 1000 to 10000 nM | 0 to 25% | CC(=O)Nc1ccn(C(=O)N2CCC3(CCCN3Cc3ccc4nc(C)oc4c3)CC2)n1 [Example 265, N-(1-(1-((2-methylbenzo[d]oxazol-6-yl)methyl)-1,8-diazaspiro[4.5]decane-8-carbonyl)-1H-pyrazol-3-yl)acetamide]
19 | – | ≥ 75% | – | 0 to 25% | CS(=O)(=O)Nc1ccn(C(=O)N2CCN(Cc3ccc(Cl)c(N4CCN(S(C)(=O)=O)CC4)c3)CC2)n1 [Example 282, N-(1-(4-(4-chloro-3-(4-(methylsulfonyl)piperazin-1-yl)benzyl)piperazine-1-carbonyl)-1H-pyrazol-3-yl) methanesulfonamide]
20 | 1000 to 10000 nM | ≥ 75% | 1000 to 10000 nM | 0 to 25% | Cc1c(CN2CCCC23CCN(C(=O)n2ccc(NS(C)(=O)=O)n2)CC3)cccc1N1CCCC1 [Example 224, N-(1-(1-(2-methyl-3-(pyrrolidin-1-yl)benzyl)-1,8-diazaspiro[4.5]decane-8-carbonyl)-1H-pyrazol-3-yl) methanesulfonamide]
21 | – | 0 to 25% | – | 0 to 25% | CN1CCN(c2c(Cl)cccc2CN2CCN(C(=O)n3ccc(NS(C)(=O)=O)n3)CC2)CC1 [Example 225, N-(1-(4-(3-chloro-2-(4-methylpiperazin-1-yl)benzyl)piperazine-1-carbonyl)-1H-pyrazol-3-yl) methanesulfonamide]
22 | – | ≥ 75% | – | 0 to 25% | CS(=O)(=O)Nc1ccn(C(=O)N2CCN(Cc3cc(N4CCOCC4)cc(C(F)(F)F)c3)CC2)n1 [Example 155, N-(1-(4-(3-morpholino-5-(trifluoromethyl)benzyl)piperazine-1-carbonyl)-1H-pyrazol-3-yl) methanesulfonamide]
